Test results published in patent US20250120942A1, “BRAIN FUNCTION IMPROVING AGENT” (OSAKA UNIVERSITY, priority 2021, published 2025).

Key:
[1] = mouse, oral administration; cited from earlier work
[2] = system: cranial nerve cell SH-SY5Y; conditions: SH-SY5Y in vitro; cited from earlier work
acetylcholine esterase = acetylcholine esterase (Homo sapiens, UniProt P22303); test: Inhibiting action of acetylcholine esterase (data not described); type: biochemical
[3] = system: extracellular acetylcholine in the cerebral cortex; test: Amount of extracellular acetylcholine in mouse brain by in vivo microdialysis (Test Example 1); parameters: species or system ddY mouse; conditions: for amount of extracellular acetylcholine in the cerebral cortex (ratio to basic released amount): oral 30 mg/kg, measured for 120 minutes after administration, compared with before administration, FIG. 1
Procedure: The compound A, B, and C were administered orally to the mouse and the effect on the amount of extracellular acetylcholine in the brain was examined. The brain microdyalysis method using the mouse is proposed as a test for evaluating cognitive dysfunction including Alzheimer type dementia. The brain microdyalysis method is a system that can monitor the variation of extracellular neurotransmitter release in real time at the local parts in the brain while the test animals are moving freely without anesthesia.
(§1) 7-weeks-old male ddY mice were purchased from Japan SLC, Inc. and subjected to the experiment after one week habituation period. The animals were reared in the rearing chamber provided with air conditioner (under the condition that the temperature was 22° C.±1° C., the relative humidity was 50±10%, and the irradiation time was 12 hours (8:00 to 20:00)). The feeding method was that the commercially available MF powdery feed (manufactured by Oriental Yeast Co., ltd.) and tap water were taken freely.
In the two days before the start of the experiment, the fixing operation of the guide cannula for inserting the dialysis probe in the mouse was conducted in advance. Under the deep anesthetized conditions, the guide cannula (depth 4 mm) (manufactured by Eicom Corp.,) was inserted in and fixed on cerebral cortex prefrontal area (which was 1.9 mm forward and 0.5 mm right side from the bregma and to which the depth from cranial surface was 0.8 mm). Buprenorphine (0.01 mg/kg manufactured by Sigma-Aldrich Japan) was administered to the mouse as analgesic after the operation. Each mouse was reared in the separate cage after the operation.
In the step of measuring extracellular acetylcholine in the brain, the dialysis probe (membrane length 3 mm) (manufactured by Eicom Corp.,) was inserted in the guide cannula and the Ringer's solution in the Japanese Pharmacopeia (containing NaCl (147.2 mM), KCl (4.0 mM), and CaCl2 (2.2 mM); manufactured by FUSO CHEMICAL CO., LTD.) was perfused at the flow velocity of 1 μL/min. The sample obtained by the perfusion was collected every 20 minutes and was immediately continuously automatically injected in the high-speed liquid chromatography/electrochemical detector (HPLC/ECD) system (manufactured by Eicom Corp., HTEC-500) together with the internal standard material (isopropylhomocholine, 250 fmol) and acetylcholine was measured under the condition described below.
• Column: Eicompak AC-GEL (2.0 mm; i.d.×150 mm) (manufactured by Eicom Corp.,) • Precolumn: PC-05-03 (3.0 mm; i.d.×40 mm) (manufactured by Eicom Corp.,) • Enzyme-immobilized column: AC-Enzympak (3.0 mm; i.d.) (manufactured by Eicom Corp.,) • Mobile Phase: 50 mM potassium hydrogen carbonate buffer containing 400 mg/L sodium decansulfonic acid and 134 μM EDTA (pH 8.3) • Flow Velocity: 150 μl/min. • Temperature of column: 33° C. • Applied voltage of ECD: +450 mV • Reference electrode: Ag/AgCl electrode • Work electrode: platinum electrode
The compound A prepared according to the procedure described in Manufacturing Example 1 was dissolved in 2.5% DMSO solution in advance to prepare for the test. […] The amount of the extracellular acetylcholine released was measured by the procedure described above in (a) Used animal and Rearing Procedure in real time for 120 minutes after the administration. The mouse in Vehicle group took only 2.5% DMSO solution orally in the same way and the amount of the extracellular acetylcholine was measured. […]

[4] = system: cytotoxicity induced by β-oligomer; conditions: cited from earlier work
[5] = cited from earlier work
amyloid β = conditions: mouse model of the Alzheimer's disease; cited from earlier work
[6] = system: scopolamine-induced amnesia mouse; test: Y-maze test, short-term working memory of scopolamine-induced amnesia mouse (Test Example 2); type: in vivo, ddY mouse; conditions: oral 30 mg/kg, scopolamine 1 mg/kg i.p.; FIG. 2(A),(B)
Procedure: The effect of inhibiting lowering of short-term memory was examined by orally or subcutaneously (intraperitoneally) administering the compound A to the mouse.
as §1
The compound A prepared according to the procedure described in Manufacturing Example 1 was dissolved in 2.5% DMSO solution in advance. There were 15 mice in each group, and the 30 mg/kg compound administration group and the 10 mg/kg compound administration group were established and orally administered. The mice of the control group and Vehicle group were orally administered with only 2.5% DMSO solution. In the same manner the compound B and the compound C were orally administered to 10 mice at a dose of 30 mg/kg respectively. Each mouse of the administration groups of the compound A to C and the vehicle group was intraperitoneally administered with scopolamine hydrobromide (manufactured by Sigma-Aldrich Japan S1875) (a dose of 1 mg/kg) which is muscarinic acetylcholine receptor antagonist 30 minutes after the administration. The mice of the control group which were not administered with scopolamine hydrobromide were intraperitoneally administered with (Japanese Pharmacopoeia) physiological saline solution (OTSUKA NORMAL SALINE 3311401A2026). At 30 minutes after the final administration, Y-maze test was conducted, and the working memory was evaluated. The test using the mice orally administered was separately conducted under the same condition as that described above for comparative evaluation of the intraperitoneal administration.
The Y-maze manufactured by Brain Science. idea Co., Ltd. was used for the test. The maze was the maze 3 courses of which were made into Y-letter shape having one selection point and arranged at interval of an angle of 120 degree. […] The mouse put on the gray course (made of polyvinyl chloride) was kept in the conditions and the mouse can see nothing but the upper part. Any one of the 3 courses of the maze was set as a starting point. After placing the mouse quietly at the starting point, the number of the times the mouse entered each course was record per 8 minutes, and as well as which course and in what order the mouse entered it. The ratio of the number of three consecutive entries into different courses (the number of the alternation behavior) to the total number of the selections was calculated as Spontaneous Alternation (%) according to the following formula and was used as an index of the short-term working memory.
From the results obtained, the mean (Mean) and the standard error (SEM) were calculated. The significant difference between the control group and the Vehicle group and between the compound A administration group and the Vehicle group was assessed by Turkey-Kramer's test. The level of significance was set to *P<0.05 and **p<0.01.

acetylcholine esterase, sequence (P22303 32-614): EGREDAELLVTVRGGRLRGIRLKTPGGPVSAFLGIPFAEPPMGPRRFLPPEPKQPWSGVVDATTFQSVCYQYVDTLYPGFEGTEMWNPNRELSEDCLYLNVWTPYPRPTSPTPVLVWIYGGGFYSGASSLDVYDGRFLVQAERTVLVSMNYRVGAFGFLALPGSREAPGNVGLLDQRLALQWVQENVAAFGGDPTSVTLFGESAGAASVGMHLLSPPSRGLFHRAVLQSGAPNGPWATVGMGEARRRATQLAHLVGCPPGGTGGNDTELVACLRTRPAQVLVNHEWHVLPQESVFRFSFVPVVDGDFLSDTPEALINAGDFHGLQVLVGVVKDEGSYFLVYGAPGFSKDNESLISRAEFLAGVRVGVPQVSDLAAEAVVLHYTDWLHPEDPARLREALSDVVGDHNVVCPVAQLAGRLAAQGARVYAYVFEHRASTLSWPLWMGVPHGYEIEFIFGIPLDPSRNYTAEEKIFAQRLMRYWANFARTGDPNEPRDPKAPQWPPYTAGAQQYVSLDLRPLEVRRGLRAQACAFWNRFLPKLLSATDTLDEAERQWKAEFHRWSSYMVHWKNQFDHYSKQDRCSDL

## O=C1CCC(Cc2cc(O)cc(O)c2)O1 (centres unmarked) [5-(3,5-dihydroxyphenyl)-γ-valerolactone]
[1]
  sulfate conjugate and glucuronic acid conjugate in the serum: detected
[2]
  nerve cell proliferating action: significant nerve cell proliferating action
Acetylcholine esterase
  inhibiting action of acetylcholine esterase: do not provide inhibiting action
[3]; after the administration
  time until which the increased amount of free acetylcholine is maintained: ≤ 100 min

## O=C1CCC(Cc2ccc(O)cc2)O1 (centres unmarked) [5-(4-monohydroxyphenyl)-γ-valerolactone]
[4]
  cytotoxicity induced by β-oligomer: reduces the cytotoxicity

## O=C(O[C@@H]1Cc2c(O)cc(O)cc2O[C@@H]1c1cc(O)c(O)c(O)c1)c1cc(O)c(O)c(O)c1 [EGCg, epigallocatechingallate]
[5]
  amount absorbed into the body after ingestion (bioavailability): extremely low
Amyloid β
  generation of amyloid β: inhibit the generation of amyloid β

## O=C1CC[C@H](Cc2ccc(O)c(O)c2)O1 [compound B, (R)-5-(3,4-dihydroxyphenyl)-γ-valerolactone, reference compound]
[6]
  ameliorating the impairment of short-term working memory (Spontaneous Alternation): not confirmed at all
[3]
  amount of extracellular acetylcholine in the cerebral cortex (ratio to basic released amount): not significant change

## O=C1CC[C@H](Cc2cc(O)c(O)c(O)c2)O1 [compound C, (R)-5-(3,4,5-trihydroxyphenyl)-γ-valerolactone, reference compound]
[6]
  ameliorating the impairment of short-term working memory (Spontaneous Alternation): not confirmed at all
[3]
  amount of extracellular acetylcholine in the cerebral cortex (ratio to basic released amount): not significant change
